Experimental findings from article PMC12951562, “SH2scan: Mapping SH2 Domain-Ligand Binding Selectivity for Inhibitors and Degraders” (Journal of Medicinal Chemistry, 2026) are described below.

SMILES strings stand for the structures. Where two headings read alike, the source gives them in different places. Non-standard residues stand in square brackets, D forms with d. Residues, ends and D or L forms follow the SMILES beside them. *: point of attachment. pY = N[C@@H](Cc1ccc(OP(=O)(O)O)cc1)C(=O)O; Caffeoyl = O=C(/C=C/c1ccc(O)c(O)c1)*

Holding throughout (test): biochemical
What all share (assay type): binding

One experiment concerns the target T1, PTPN6(SH2dom.N-term.) (Homo sapiens, UniProt P29350).
T1 construct: SH2dom.N-term. denotes SH2 domain closest to N-terminus of protein; made in house; host or cells: HEK293 (transient transfection, unpurified extract)
T1 sequence (P29350 4-100 limits assumed): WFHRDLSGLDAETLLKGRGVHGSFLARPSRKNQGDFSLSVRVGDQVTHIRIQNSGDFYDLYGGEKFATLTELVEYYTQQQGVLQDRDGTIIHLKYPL
The note with it: for remaining activity at 10 µM: read-out: percent of DMSO vehicle control.

The next experiment deals with T2, SHC2 (Homo sapiens, UniProt P98077).
T2 construct: made in house; host or cells: HEK293 (transient transfection), unpurified extract
T2 sequence (P98077 1-582): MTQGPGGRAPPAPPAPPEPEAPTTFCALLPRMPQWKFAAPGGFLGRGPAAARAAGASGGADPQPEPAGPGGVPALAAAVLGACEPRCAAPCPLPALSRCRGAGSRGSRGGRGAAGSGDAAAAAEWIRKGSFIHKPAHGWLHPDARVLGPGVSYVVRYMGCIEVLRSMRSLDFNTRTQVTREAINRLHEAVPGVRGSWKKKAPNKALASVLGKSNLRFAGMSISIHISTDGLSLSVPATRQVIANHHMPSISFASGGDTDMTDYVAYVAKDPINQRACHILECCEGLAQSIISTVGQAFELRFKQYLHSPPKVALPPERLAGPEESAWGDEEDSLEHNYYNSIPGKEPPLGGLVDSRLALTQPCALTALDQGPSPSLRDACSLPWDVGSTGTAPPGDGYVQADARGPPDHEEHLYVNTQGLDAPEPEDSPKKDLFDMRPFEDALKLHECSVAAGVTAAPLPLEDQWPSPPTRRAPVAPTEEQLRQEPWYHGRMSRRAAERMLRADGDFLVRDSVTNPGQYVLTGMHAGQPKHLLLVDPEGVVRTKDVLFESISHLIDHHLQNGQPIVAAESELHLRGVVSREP
Particulars: for remaining activity at 10 µM: read-out: percent of DMSO vehicle control.

A further experiment has as its target T3, STAT6 (Homo sapiens, UniProt P42226).
T3 construct: made in house; host or cells: HEK293 (transient transfection), unpurified extract
T3 sequence (P42226 1-847): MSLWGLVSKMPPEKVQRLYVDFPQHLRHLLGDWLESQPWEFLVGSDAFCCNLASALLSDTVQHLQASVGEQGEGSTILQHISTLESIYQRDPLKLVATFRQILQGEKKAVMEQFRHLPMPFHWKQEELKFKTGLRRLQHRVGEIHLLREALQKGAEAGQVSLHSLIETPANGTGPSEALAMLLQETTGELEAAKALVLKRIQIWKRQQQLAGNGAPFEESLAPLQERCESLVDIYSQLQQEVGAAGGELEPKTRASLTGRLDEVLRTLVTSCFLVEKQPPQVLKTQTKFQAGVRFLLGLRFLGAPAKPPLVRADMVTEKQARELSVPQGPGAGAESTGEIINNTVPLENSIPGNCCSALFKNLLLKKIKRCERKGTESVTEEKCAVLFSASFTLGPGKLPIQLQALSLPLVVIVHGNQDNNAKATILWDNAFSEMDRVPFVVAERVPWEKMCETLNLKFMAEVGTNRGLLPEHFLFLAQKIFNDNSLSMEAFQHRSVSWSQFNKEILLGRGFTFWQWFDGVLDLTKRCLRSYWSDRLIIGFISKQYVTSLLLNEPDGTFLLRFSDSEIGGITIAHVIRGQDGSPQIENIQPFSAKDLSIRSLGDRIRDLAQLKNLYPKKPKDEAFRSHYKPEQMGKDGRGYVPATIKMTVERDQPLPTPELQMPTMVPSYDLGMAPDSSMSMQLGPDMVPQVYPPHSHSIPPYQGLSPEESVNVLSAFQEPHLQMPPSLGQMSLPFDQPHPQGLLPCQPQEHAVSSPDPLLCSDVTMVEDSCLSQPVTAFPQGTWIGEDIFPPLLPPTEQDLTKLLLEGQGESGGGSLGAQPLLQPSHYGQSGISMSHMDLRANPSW
The note with it: for percent of DMSO vehicle control at 10 µM / remaining activity at 10 µM: read-out: percent of DMSO vehicle control.

The target of a further experiment is T4, TNS2 (Homo sapiens, UniProt Q63HR2).
T4 construct: made in house; host or cells: HEK293 (transient transfection), unpurified extract
T4 sequence (Q63HR2 1-1409): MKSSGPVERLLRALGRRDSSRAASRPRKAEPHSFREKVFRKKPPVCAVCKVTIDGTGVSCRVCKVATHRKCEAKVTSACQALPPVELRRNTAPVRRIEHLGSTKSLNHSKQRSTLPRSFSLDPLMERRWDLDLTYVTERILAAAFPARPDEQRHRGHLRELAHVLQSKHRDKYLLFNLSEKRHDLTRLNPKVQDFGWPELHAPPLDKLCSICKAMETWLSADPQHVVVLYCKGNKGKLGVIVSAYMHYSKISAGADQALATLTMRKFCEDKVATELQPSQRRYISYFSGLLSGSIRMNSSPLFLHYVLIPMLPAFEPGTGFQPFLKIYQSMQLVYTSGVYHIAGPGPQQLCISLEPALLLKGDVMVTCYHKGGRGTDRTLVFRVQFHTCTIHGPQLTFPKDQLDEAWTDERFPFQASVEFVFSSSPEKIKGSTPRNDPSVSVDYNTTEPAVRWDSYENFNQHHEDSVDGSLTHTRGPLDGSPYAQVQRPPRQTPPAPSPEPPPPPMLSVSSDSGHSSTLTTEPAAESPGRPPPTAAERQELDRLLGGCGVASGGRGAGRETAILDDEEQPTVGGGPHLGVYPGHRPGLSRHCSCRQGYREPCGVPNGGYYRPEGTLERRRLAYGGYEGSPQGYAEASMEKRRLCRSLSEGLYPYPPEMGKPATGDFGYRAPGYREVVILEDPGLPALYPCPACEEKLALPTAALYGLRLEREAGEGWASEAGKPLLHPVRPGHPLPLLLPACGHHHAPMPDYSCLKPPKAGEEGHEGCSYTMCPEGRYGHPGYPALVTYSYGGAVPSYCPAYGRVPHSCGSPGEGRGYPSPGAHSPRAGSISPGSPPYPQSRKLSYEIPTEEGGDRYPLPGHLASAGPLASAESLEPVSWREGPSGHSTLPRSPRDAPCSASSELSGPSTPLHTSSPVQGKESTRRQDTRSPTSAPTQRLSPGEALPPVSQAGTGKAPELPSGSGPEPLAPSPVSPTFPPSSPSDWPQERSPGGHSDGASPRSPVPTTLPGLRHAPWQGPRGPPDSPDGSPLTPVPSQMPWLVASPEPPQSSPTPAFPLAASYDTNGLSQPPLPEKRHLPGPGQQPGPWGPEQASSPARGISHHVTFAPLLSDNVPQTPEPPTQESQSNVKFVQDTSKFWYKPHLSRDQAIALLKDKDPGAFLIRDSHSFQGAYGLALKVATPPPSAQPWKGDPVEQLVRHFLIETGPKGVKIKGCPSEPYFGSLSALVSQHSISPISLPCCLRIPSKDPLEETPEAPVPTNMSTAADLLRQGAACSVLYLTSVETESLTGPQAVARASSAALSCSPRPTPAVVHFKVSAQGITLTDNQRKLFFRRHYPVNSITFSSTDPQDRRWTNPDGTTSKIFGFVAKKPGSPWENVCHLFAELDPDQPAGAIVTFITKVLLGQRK
Particulars: for remaining activity at 10 µM: read-out: percent of DMSO vehicle control.

Turning to `NC(=O)CC[C@H](NC(=O)[C@@H]1CC[C@@H]2CCN(C(=O)CCCCCC#Cc3cccc4c3CN(C3CCC(=O)NC3=O)C4=O)C[C@H](NC(=O)c3cc4cc(C(F)(F)P(=O)(O)O)ccc4[nH]3)C(=O)N21)C(=O)NC(c1ccccc1)c1ccccc1` (stereo partly shown) [SD-36], the remaining activity at 10 µM on PTPN6(SH2dom.N-term.) was 87.3 ± 4.7%; on SHC2 it was 94.9 ± 2.3%; on TNS2, 65.4 ± 3.3%. This molecule also gave a Kd at STAT6 (dose-response) of 1070 ± 740 nM. For the same molecule, at STAT6, the percent of DMSO vehicle control at 10 µM stood at 4.2 ± 0.1%.
As to `CC(C)(C)[C@H](NC(=O)/C=C/c1ccc(OP(=O)(O)O)cc1)C(=O)N1CCC[C@H]1C(=O)N(c1ccccc1)c1ccc(I)cc1` [STAT6-IN-3], the remaining activity at 10 µM on PTPN6(SH2dom.N-term.) (primary screen, 10 μM) came out at 77.4 ± 15.8%; on SHC2 (primary screen, 10 μM) it was 85.2 ± 11.3%; on STAT6 (primary screen, 10 μM) it was 0%; at TNS2 (primary screen, 10 μM) it was 86.8 ± 7.1%. For the same molecule, on STAT6 (dose-response, read-out: KD), the Kd is 8.6 nM.
For `CC[C@H](C)[C@H](NC(=O)[C@H](CCC(=O)O)NC(=O)[C@H](CCC(=O)O)NC(=O)[C@H](Cc1ccc(OP(=O)(O)O)cc1)NC(C)=O)C(=O)N[C@@H](CCC(=O)O)C(N)=O` [Ac-pYEEIE-NH2] (Ac-[pY]EEIE-NH2), the “percent of DMSO vehicle control” value is recorded as 163.9% on PTPN6(SH2dom.N-term.) (primary screen, 10 μM); 138.0% at SHC2 (primary screen, 10 μM); 162.5% on STAT6 (primary screen, 10 μM); 104.0% at TNS2 (primary screen, 10 μM).
Regarding `O=C(CCl)Nc1cccc(CNC(=O)[C@H](Cc2ccc(OP(=O)(O)O)cc2)NC(=O)Cc2ccc(F)cc2)c1` [MN551], the remaining activity at 10 µM at PTPN6(SH2dom.N-term.) (primary screen, 10 μM) was found to be 102%; at SHC2 (primary screen, 10 μM) it was 82.9 ± 1.7%; on STAT6 (primary screen, 10 μM) it was 37.2%; at TNS2 (primary screen, 10 μM), 74.1 ± 2.1%.
As for `CC(=O)N[C@@H](Cc1ccc(CP(=O)(O)O)cc1)C(=O)NC1(C(=O)N[C@@H](CC(N)=O)C(=O)NCCCc2c(O)ccc3ccccc23)CCCCC1` [CGP78850], the remaining activity at 10 µM on PTPN6(SH2dom.N-term.) was determined as 112 ± 9.8%; on SHC2, 100 ± 8.5%; on TNS2 it was 16%. In addition, on STAT6, the percent of DMSO vehicle control at 10 µM amounted to 104 ± 11%. The same molecule displayed a Kd at TNS2 of 1200 nM.
As to `CC(=O)N1CC[C@H]2CC[C@@H](C(=O)N[C@@H](CCC(N)=O)C(=O)NC(c3ccccc3)c3ccccc3)N2C(=O)[C@@H](NC(=O)c2cc3cc(C(F)(F)P(=O)(O)O)ccc3[nH]2)C1` [SI-109], the results for the remaining activity at 10 µM on PTPN6(SH2dom.N-term.), on SHC2 and at TNS2 were 123%, 131% and 126%, respectively. This molecule showed a Kd on STAT6 of 1400 ± 0.15 nM. The percent of DMSO vehicle control at 10 µM at STAT6 is 44.5 ± 2.9%.
Regarding `CC[C@H](C)[C@H](NC(=O)[C@H](CCC(=O)O)NC(=O)[C@H](CCC(=O)O)NC(=O)[C@H](Cc1ccc(OP(=O)(O)O)cc1)NC(=O)/C=C/c1ccc(O)c(O)c1)C(=O)N[C@@H](CCC(=O)O)C(=O)O` [Caffeic acid-pYEEIE] (Caffeoyl-[pY]EEIE-OH), the results for the remaining activity at 10 µM on PTPN6(SH2dom.N-term.), at SHC2 and at TNS2 were 118 ± 19.5%, 0.3 ± 0.1% and 4.8 ± 1.3%, respectively. The Kd at SHC2 was found to be 580 ± 330 nM; on TNS2, 4300 ± 2500 nM. Also, at STAT6, the percent of DMSO vehicle control at 10 µM was found to be 103 ± 16.9%.
On to `O=C(COc1ccc2cc(C(=O)Nc3ccccc3)ccc2c1)NCc1ccc(OP(=O)(O)O)c(OP(=O)(O)O)c1` [Stafib-1], for which the dissociation constant Kd is 13000 nM at PTPN6(SH2dom.N-term.) (dose-response, read-out: KD) and 7300 ± 2300 nM on STAT6 (dose-response, read-out: KD). Besides, the remaining activity at 10 µM at PTPN6(SH2dom.N-term.) (primary screen, 10 μM) turned out to be 27.8 ± 4.2%; on SHC2 (primary screen, 10 μM), 83.4 ± 24.4%; on STAT6 (primary screen, 10 μM), 18.2%; on TNS2 (primary screen, 10 μM), 86 ± 8.8%.
For the molecule `CC[C@H](C)[C@H](NC(=O)[C@H](CO)NC(=O)[C@H](CC(C)C)NC(=O)[C@H](CCCNC(=N)N)NC(=O)[C@H](CO)NC(=O)[C@H](CS)NC(C)=O)C(=O)N[C@@H](Cc1ccc(OP(=O)(O)O)cc1)C(=O)N[C@@H](CC(=O)O)C(=O)N[C@@H](CC(N)=O)C(=O)N[C@H](C(=O)N1CCC[C@H]1C(=O)NCC(N)=O)C(C)C` [Ac-CSRLSIpYDNVPG-NH2] (Ac-CSRLSI[pY]DNVPG-NH2), the affinity at TNS2, expressed as Kd, was 466 ± 450 nM.
`C/C(=C\C(=O)N[C@H](C(=O)N1CCC[C@H]1C(=O)N(c1ccccc1)c1ccc(I)cc1)C(C)(C)C)c1ccc(OP(=O)(O)O)cc1` [STAT6-IN-1]: the remaining activity at 10 µM on PTPN6(SH2dom.N-term.) (primary screen, 10 μM) was 69.7%; on SHC2 (primary screen, 10 μM) it was 47.3 ± 3.3%; at STAT6 (primary screen, 10 μM), 0%; at TNS2 (primary screen, 10 μM), 55.9 ± 0.4%. Also, at STAT6 (dose-response, read-out: KD), the Kd was 0.68 nM.

A word on the Kd: it is the concentration at which binding is half-saturated.
